Source: patent publication US5587463A, “Texaphyrin macrocycles and metal complexes thereof” (Board of Regents, The University of Texas System, priority 1994, dated 1996)
“Also recorded” adds a separate entry of the source. Like-named read-outs stand apart in the source and are kept apart here.

Tests used:
herpes simplex (HSV-1) = assay: Preliminary in vitro HSV-1 infectivity study in 10% human serum; type: cell-based; conditions: irradiation at 767 nm
Description: (§1) In summary, the new metallotexaphrin complexes discussed here show three important optical properties which make them unique among existing porphyrin-like macrocycles. They absorb strongly in a physiologically important region (i.e. 730-770 nm), form long-lived triplet states in high yield, and act as efficient photosensitizers for the formation of singlet oxygen (see, e.g. FIG. 21).

[1] = Optical and photophysical properties of metallotexaphyrins (laser flash photolysis, fluorescence, singlet oxygen luminescence); type: physicochemical; design: tt (triplet lifetime): unit not given here; conditions: CH3 OH
Description: Finally, several complexes containing paramagnetic metal ions (e.g. Mn^II, Sm^III, and Eu^III, structures 5c -7c) were investigated.
Comparison of the initial intensity with that obtained using tetrakis (4-hydroxyphenyl)porphyrin (THPP) as photosensitizer^3b under identical conditions allowed calculation of the quantum yields for production of singlet oxygen (^.phi. 1.cndot.2).

lymphocyte = assay: Preliminary in vitro lymphocyte mitogenic activity study in 10% human serum; type: cell-based; conditions: irradiation at 767 nm
Description: as §1

[2] = Cytotoxicity in the absence of light; type: cell-based; conditions: preliminary
Description: In addition, some preliminary toxicity and stability information will begin to emerge from these in vitro experiments.

HSV-1 = assay: Preliminary in vitro photo-killing of HSV-1 infectivity; type: cell-based
Description: (§2) Several preliminary in vitro biological studies have been carried out with the cadmium(II) complexes of the 18 and 22 π-electron texaphyrins 14D and 5D. […] This latter result, in particular, augurs well for the eventual use of these materials in prophylactic photodynamic anti-AIDS blood-treatment programs. The 2 log decrease in HSV-1 activity achieved with the texaphyrin systems studied to date is not yet sufficient to completely design a viable protocol: Both HPD and PII, as well as sapphyrin (6D) , reprepared by literature methods^70 provide about a 5 log decrease in viral activity under similar light fluence when irradiated at the appropriate lowest energy transition (630 and 690 nm, respectively). Although a mechanistic comparison with the incompletely characterized hematoporphyrin-derived systems is difficult, a direct structural correspondence exists between the tripyrroledimethine-derived cadmium(II) texaphyrin and free-base sapphyrin systems: The main difference is in overall charge on the photosensitizer. It may thus be that these two macrocycle types are bound to the virus envelope in a different manner; perhaps the sapphyrin "intercalates" into the lipid layer and the charged metallotexaphyrin sits on the surface of the membrane and as such could suffer from deleterious aggregations (which would lower singlet oxygen production).

lymphocytes = assay: Localization on lymphocytes by absorption and emission measurements; type: cell-based
Description: as §2

[3] = Stability in methanol/water or water (decomplexation, decomposition)
[4] = 1:1 methanol/water
[5] = Imine hydrolysis half-life by pH
[6] = Stability of free-base macrocycle; type: physicochemical
[7] = system: rapidly growing tissues including sarcomas and carcinomas; conditions: in vivo; cited from earlier work
[8] = benzene, cited from earlier work
[9] = Stability to demetallation (sulfide, thiosulfate); type: physicochemical; conditions: aqueous Na2 S / excess sulfide anion
Description: The above K1 and K2 (or K1 K2) values are predicated on the assumption that the cadmium complexes under discussion are stable with regards to demetallation and that the equilibria of equations 1 and 2 (or 3) pertain under the conditions of base binding. The first of these concerns is readily apparent: If demetallation occurs, then obviously one is not studying base binding! […] The second concern is particularly important within the context of quantitative work: If, for instance, the starting complex 3.cndot.NO3 is not rigorously five coordinate, then K1 (and perhaps K2 as well) would represent an axial ligand displacement reaction rather than a pure addition process as implied above. Control experiments indicate that the assumption of initial five coordination is reasonable: Independent titrations of 3A .cndot.NO3 with NH4 NO3 and H2 O indicate that only modest and monotonic changes in the chemical shift of the "meso" signals take place over the course of adding ≥50 equivalents of these potentially adventitious ligands.^40 This means that either "complete" binding occurs at 1:1 stoichiometry (essentially ruled out in the case of H2 O on the basis of analytical data), or that these species are poorly coordinating in CHCl3 so that five coordination pertains about cadmium; the latter interpretation appearing more likely.
Attempts to demetallate complex 3A .cndot.NO3 were made. In an effort to obtain the free sp^2 bridged ligand 2A, the above complex in chloroform was stirred for several hours in the presence of sodium sulfide and independently with sodium thiosulfate. […] In the case of sodium sulfide, this critical conclusion was further supported by FAB MS: Other than the starting cationic complex 3A, no evidence was obtained for any moderate to high molecular weight volatile products in the mass spectrum. […] The rate of this process, however, is strongly pH dependent, the half-life being, for instance, on the order of several hours in the presence of ca. 0.1N HCl.

[10] = system: enveloped viruses (HSV-1, cytomegalovirus, measles virus, HIV-1); conditions: previous studies; cited from earlier work

## CCC1=C(C)c2cnc3ccccc3ncc3nc(cc4[n-]c(cc1n2)c(CC)c4CC)C(CC)=C3C.O=[N+]([O-])[O-].[Cd+2] [3C NO3]
Herpes simplex (HSV-1)
  HSV-1 infectivity: significant decrease
[1]
  Emission gmax: 780 nm
  S (= phi 1O2 / phi t): 0.78
[1]; deoxygenated
  tt (triplet lifetime): 55
[1]; first value (Soret)
  Absorption gmax (Soret-type band): 417 nm
[1]; second value (Q-type)
  Absorption gmax (Q-type band): 759 nm
[1]; ±5%
  Dt (triplet quantum yield): 0.88
[1]; ±10%
  D^1 O2 (singlet oxygen quantum yield): 0.69
  Df (fluorescence quantum yield): 0.011
lymphocyte
  lymphocyte mitogenic activity: significant decrease

## CCC1=C(C)c2cnc3ccccc3ncc3nc(cc4[nH]c(cc1n2)c(CC)c4CC)C(CC)=C3C [5D]
[2]
  general cytotoxicity: nor, fortunately, do they show much evidence of general cytotoxicity in the absence of light
HSV-1; 20 J/cm^2 at lowest energy absorption (690 nm for 14D, 767 nm for 5D)
  photo-killing of HSV-1 infectivity: ca. 2 log
HSV-1; dark
  dark antiviral activity: neither 5D nor 14D show any appreciable dark antiviral activity
lymphocytes
  localization on lymphocytes: localize selectively on lymphocytes

## CCc1c(CC)c2cc3nc(cc4[nH]c(c(C)c4CC)c4[nH]c(cc5nc(cc1[nH]2)C(CCC(=O)N(CCO)CCO)=C5C)c(CC)c4C)C(C)=C3CCC(=O)N(CCO)CCO [6D, reference compound]
HSV-1; similar light fluence, at lowest energy transition (630 and 690 nm, respectively)
  decrease in viral activity: ~5 log

## CCC1=C(C)c2cnc3ccccc3ncc3nc(cc4[n-]c(cc1n2)c(CC)c4CC)C(CC)=C3C.[In+3] [In^3+ complex of texaphyrin]
[3]
  hydrolytic stability (in words): kinetically and hydrolytically stable
[3]; 1:1 methanol-water
  half-lives for decomplexation and/or ligand decomposition: exceed 3 weeks

## CCC1=C(C)c2cnc3ccccc3ncc3nc(cc4[n-]c(cc1n2)c(CC)c4CC)C(CC)=C3C.[Y+3] [Y^3+ complex of texaphyrin]
[4]
  half-lives for decomplexation and/or ligand decomposition: exceed 3 weeks

## CCC1=C(C)c2cnc3ccccc3ncc3nc(cc4[n-]c(cc1n2)c(CC)c4CC)C(CC)=C3C.[Cd+2] [cadmium(II) complex of 5D]
[2]
  general cytotoxicity: not appreciable cytotoxic

## CCC1=C(C)c2cnc3ccccc3ncc3nc(cc4[n-]c(cc1n2)c(CC)c4CC)C(CC)=C3C.[Cd+2] [complex 2B]
[5]; pH 2
  half-life for imine hydrolysis: several hours
[5]; pH 7
  half-life for imine hydrolysis: > 30 days

## CCC1=C(C)C2=[N+]3C1=Cc1c(CC)c(CC)c4[n]1[Gd-2]315[N+](=C2)c2cc(C)c(C)cc2[N+]1=CC1=[N+]5C(=C4)C(CC)=C1C.[OH-].[OH-] [complex 7B]
pH 2
  half-life for imine hydrolysis: several hours
pH 7
  half-life for imine hydrolysis: > 30 days
[4]
  half-life: over 5 weeks
  half-life for decomplexation and/or decomposition: ≥ 100 days
[4]; 336 h, 35 µM
  bleaching of the Soret and Q-type bands: less than 10%

## CCC1=C(C)c2cnc3ccccc3ncc3nc(cc4[nH]c(cc1n2)c(CC)c4CC)C(CC)=C3C [compound 2, 4,5,9,24-tetraethyl-10,23-dimethyl-13,20,25,26,27-pentaazapentacyclo [20.2.1.1^3,6.1^8,11.0^14,19] heptacosa-1,3,5,7,9,11(27), 12,14,16,18,20,22 (25),23-tridecaene]
[6]
  stability of free-base relative to compound 1: undergoes decomposition far more slowly than compound 1

## CC1=C(CCC(=O)O)c2cc3[nH]c(cc4nc(cc5[nH]c(cc1n2)c(C)c5C(C)O)C(C)=C4C(C)O)c(C)c3CCC(=O)O (centres unmarked) [hematoporphyrin]
[7]
  localization in rapidly growing tissues: localize selectively in rapidly growing tissues including sarcomas and carcinomas

## cadmium tetraphenyl porphyrin [CdTPP, reference compound]
[8]; 29.9°, read-out: K1 (single pyridine axial ligand) (converted)
  Kd: ~370 µM
[8]; pyridine-containing
  formation of bisligated species: no evidence for the formation of a bisligated CdTPP-(pyr)2
[9]
  demetallation by sulfide: serves to demetallate CdTPP; also recorded: leads to cation loss and precipitation of CdS

## dihematoporphyrin ether [DHE]
[10]
  inactivation of viruses: only those viruses studied which are enveloped or possess a membraneous coat are inactivated
